Assay results as given in ChEMBL document CHEMBL1144807, “Ciliatamides A-C, bioactive lipopeptides from the deep-sea sponge Aaptos ciliata” (J Nat Prod, 2008).
In brackets after ≈: the same amount, converted by molar mass. Activity calls are given as the source filed them. The calls are words filed in the database; no cut-off is given here.

Tests used:
Leishmania major = test: Antileishmanial activity against Leishmania major egfp promastigotes at 10 ug/ml; format: functional; conditions: for inhibition of growth at 10 µg/mL: read-out: GI
HeLa = test: Cytotoxicity against human HeLa cells lines by MTT assay; format: cell-based

Row | Compound | inhibition of growth at 10 µg/mL (Leishmania major) [%] | IC50 (HeLa) [mg/L] | Activity (Leishmania major)
1 | C=CCCCCCCCC(=O)N(C)[C@@H](Cc1ccccc1)C(=O)N[C@H]1CCCCNC1=O [CILIATAMIDES A] | 50 | 50 (≈ 113 µM) | 
2 | CCCCCCCC(=O)N(C)[C@@H](Cc1ccccc1)C(=O)N[C@H]1CCCCNC1=O [CILIATAMIDES B] | 45.5 | 4.5 (≈ 10.8 µM) | 
3 | C=CCCCCCCCC(=O)N(C)[C@@H](Cc1ccccc1)C(=O)N[C@H]1CCCNC1=O [CILIATAMIDES C] |  | 50 (≈ 117 µM) | inactive
